Test results as given in US11654126B2, “Method of inhibiting the proliferation of T and/or B lymphocytes via dimethylarginine derivatives and lymphocytes proliferation inhibitor” (GUANGZHOU MEDICAL UNIVERSITY, priority 2019, dated 2023).
“Also recorded” adds a separate entry of the source.

Experiments:
mouse T cells [1] = assay: Mouse T cell proliferation assay (anti-CD3/CD28 beads, CellTrace Violet, flow cytometry); format: cell-based; conditions: 1 μM and 5 μM; for survival rate of cells / number of divided T cells: 3 days of stimulation, vs control group; for survival rate of cells: FIG. 1A; for number of divided T cells: FIG. 1B; for proliferation of mouse T cells: P<0.001
Method: Total splenic T cells were isolated by StemCell isolation kit: From female 6-8 weeks old C57BL mice, spleens were harvested, mechanically disrupted, and incubated with a biotinylated antibody cocktail consisting of antibodies to B220, CD11b, CD11c, CD16/32, CD19, CD25, CD105, NK1.1, and TCRγδ (StemCell). After a wash step, cells were incubated with streptavidin-coated magnetic nanoparticles (StemCell). CD3^+ cells were then isolated by applying a magnetic field and collecting the unbound cells.
The total T cells obtained in step 1 were labeled with the proliferation indicator dye CellTrace Violet according to the manufacturer's protocol, and then seeded in 96-well round bottom cell culture plates at 2×10^5 per well, next the cells were stimulated with anti-CD3 and anti-CD28 antibody coated magnetic beads (Gibco Dynabeads mouse T-activator CD3/CD28 for T-cell expansion and activation) with the beads to cells ratio of 1:4, and then expanded in RPMI-1640 medium up to 4 days, and dilution of CellTrace Violet was then evaluated by flow cytometry.
Experimental group: different concentrations of ADMA or SDMA were added (ADMA and SDMA dissolved in sterile endotoxin-free water, and the concentration of the storage solution is 0.5 mM); Control group: the same volume of sterile endotoxin-free water was added without ADMA or SDMA.

human T cells [2] = assay: Human T cell in vitro proliferation assay (anti-CD3/anti-CD28, CellTrace Violet); format: cell-based; conditions: 1 μM; for proliferation of human T cells: P<0.001; for number of divided T cells: human T cells, after 4 days of culture, FIG. 2
Excerpt: Human T cell isolation and in vitro proliferation experiments: the use of blood from healthy adult blood donors was approved by the Ethics Committee of the Medical Faculty of Guangzhou Medical University, Guangzhou, China. Peripheral blood mononuclear cells (PBMCs) were isolated using Sepmate PBMC isolation tubes following the manufacturer's instructions (StemCell). CD3^+ human T cells were positively isolated by magnetic cell sorting (Miltenyi Biotec, Bergisch-Gladbach, Germany). Purified T cells were labeled with the proliferation dye CellTrace Violet according to the manufacturer's protocol. Then the cells (1×10^5 cells per well in flat bottom 96 well plate) were stimulated in vitro with immobilized anti-CD3 (5 μg/ml) and anti-CD28 (2 μg/ml) antibody (Biolegend, San Diego, USA), and expanded in RPMI1640 medium up to 5 days. Dilution of CellTrace Violet, indicating proliferation, was then evaluated by flow cytometry.

mouse B cells = assay: Mouse B cell proliferation assay (splenocytes, IL-4 + anti-IgM, CellTrace Violet); format: cell-based; conditions: 5 μM; for B cells proliferation: P<0.01; for number of live B cells / number of divided B cells: after 4 days; for number of live B cells: FIG. 3A; for number of divided B cells: FIG. 3B
Method: Spleens were harvested, mechanically disrupted, and resuspend in RPMI 1640 complete medium (10% FBS).
Total splenocytes were then labeled with the proliferation dye CellTrace Violet according to the manufacturer's protocol. Then splenocytes (1×10^5 cells per well in flat bottom 96 well plate) were stimulated with recombinant human IL-4 ([…] and α-mouse IgM (10 μg/ml), and expanded in RPMI1640 medium up to 5 days. Dilution of CellTrace Violet was then evaluated by flow cytometry. (Note; splenocytes contain T cells and monocytes, which will die off during the assay period.)
Experimental group: ADMA or SDMA (5 μM) was added (ADMA and SDMA dissolved in sterile endotoxin-free water, the storage solution concentration is 0.5 mM). Control group: the same volume of sterile endotoxin-free water without ADMA or SDMA was added.

mouse T cells [3] = assay: ROS generation in T cells (CellROX Green, flow cytometry); format: cell-based
Method: For flow cytometry, T cells were stained with 5 μM CellROX Green Reagent (Life Technologies) for 30 min at 37° C. in the presence or absence of ADMA or SDMA (5 μM), and then washed with 1×PBS once. MitoQ (100 nM) was added with ADMA and SDMA. Cells were resuspended in 300 μl of PBS before the analysis by flow cytometry.
Experimental Groups: ADMA alone, SDMA alone, or ADMA/SDMA (ADMA/SDMA represents the mixture of ADMA and SDMA herein) was used at the final concentration of 1 μM, MitoQ was used either at 10 nM or 100 nM.

activated human T cells = assay: Proliferation of activated human T cells (compound added 24 h after anti-CD3/CD28 stimulation); format: cell-based; conditions: ADMA 1 μM; for inhibitory effect compared with other substances / number of live cells / T cell proliferation: PD404182 100 nM; for inhibitory effect compared with other substances / number of live cells: rapamycin 50 nM; for number of live cells: 24 h and 48 h after addition, vs control, FIG. 5A, 5B; for T cell proliferation: activated human T cells
Method: Human T cells were stimulated with anti-human CD3 and CD28 for 24 hours. […] Flow cytometry was used to analyze the number of live cells and the number of divided cells. The results are shown in FIG. 5A and FIG. 5B, respectively.

T cells = assay: Effect of MitoQ on T cell proliferation in vitro with ADMA/SDMA; format: cell-based, mouse; conditions: MitoQ 100 nM + ADMA/SDMA 1 μM vs ADMA/SDMA group; 3 days; FIG. 4D
Method: After incubating MitoQ and ADMA/SDMA together with T cells up to 3 days, flow cytometry was used to investigate the effect on the T cells proliferation in vitro.
Experimental groups: Control, ADMA/SDMA (1 μM), and ADMA/SDMA (1 μM)+MitoQ (100 nM).

mouse splenic T cells = assay: DMGV-induced ROS in mouse T cells (flow cytometry); format: cell-based; conditions: 1 h, FIG. 6A
Method: (§1) DMGV was synthesized as described in the literature (for specific preparation procedures, refer to J. Mass Spectrom. 2012, 47, 1594; Anal. Biochem. 2011, 419, 234). Mouse and human T cells were treated with none, or DMGV (10 μM), or DMGV+MitoQ (100 nM) for 1 h and ROS was measured by flow cytometry. The results are shown in FIG. 6A and FIG. 6B, respectively.

human peripheral T cells = assay: DMGV-induced ROS in human T cells (flow cytometry); format: cell-based; conditions: 1 h, FIG. 6B
Method: as §1

human T cells [4] = assay: DMGV human T cell proliferation (anti-CD3/anti-CD28 activation); format: cell-based; conditions: 3 days, FIG. 6D
Method: (§2) Mouse or human T cells were activated by anti-CD3 and anti-28 antibodies with none, DMGV (10 μM), or DMGV+MitoQ (100 nM) for 3 days and proliferation was measured by flow cytometry. The results are shown in FIG. 6C and FIG. 6D, respectively.

mouse T cells [5] = assay: DMGV mouse T cell proliferation (anti-CD3/anti-CD28 activation); format: cell-based; conditions: 3 days, FIG. 6C
Method: as §2

SKG mice arthritis = assay: Arthritis in beta-glucan injected SKG mice; format: in vivo; conditions: SKG mice with score 8 or above; DMGV 750 μg/mouse in the peritoneum up to 50 days; N=7, P=0.0006 (2-way ANOVA); FIG. 7
Method: SKG mice (purchased from CLEA Japan, Inc.) develop arthritis because a mutation in the ZAP-70 gene, which causes activation of T cells. SKG mice were injected with beta-glucan (30 mg/mouse, Sigma) to accelerate development of arthritis and the arthritis score was calculated as described in the literature (for specific preparation procedures, refer to Yoshitomi, H, J. Exp Med. 2005). Mice that reached the arthritis score of 8 or above in less than 2 months were selected and treated with DMGV (750 μg/mouse) twice a week up to 50 days.

[6] = ADMA or SDMA alone vs none, 2 hours, FIG. 4A

Molecule	survival rate of cells (mouse T cells [1])	number of divided T cells (mouse T cells [1])	proliferation of mouse T cells (mouse T cells [1])	proliferation of human T cells (human T cells [2])	number of divided T cells (human T cells [2])	B cells proliferation (mouse B cells)	number of live B cells (mouse B cells)	number of divided B cells (mouse B cells)	ROS (mouse T cells [3]; [6])	inhibitory effect compared with other substances (activated human T cells)	number of live cells (activated human T cells)	T cell proliferation (activated human T cells)	further results
CN(C)C(N)=NCCC[C@H](N)C(=O)O [ADMA, asymmetric dimethylarginine]	reduced the survival rate of cells	resulted in the reduction of the number of divided T cells	significantly inhibit the proliferation of mouse T cells	inhibit proliferation of human T cells significantly	reduced the number of divided T cells	significantly inhibit B cells proliferation	reduced the number of live	reduced the number of live (FIG. 3A) and divided B cells	ROS was significantly induced	better than PD404182; also recorded: superior to the mTOR inhibitor rapamycin	the number of live cells declined	can inhibit T cell proliferation	number of divided cells of T cells (activated human T cells; vs control or rapamycin group): decreased significantly
COC1=C(OC)C(=O)C(CCCCCCCCCC[P+](c2ccccc2)(c2ccccc2)c2ccccc2)=C(C)C1=O [MitoQ, reference compound]	–	–	–	–	–	–	–	–	–	–	–	–	ROS (mouse T cells [3]; MitoQ (100 nM) with ADMA/SDMA vs ADMA/SDMA alone, FIG. 4B): decreased significantly; effect on inhibition of T cells proliferation by ADMA/SDMA (T cells): significantly prevent the inhibitory effect of ADMA and SDMA on T cells proliferation; effect on DMGV-induced ROS (mouse splenic T cells; DMGV 10 μM plus MitoQ 100 nM): inhibited by MitoQ; effect on DMGV-induced ROS (human peripheral T cells; DMGV 10 μM plus MitoQ 100 nM): inhibited by MitoQ; effect on inhibition of proliferation by DMGV (human T cells [4]; DMGV 10 μM plus MitoQ 100 nM): inhibited by MitoQ
N=C1Sc2ccccc2C2=NCCCN12 [PD404182, reference compound]	–	–	–	–	–	–	–	–	–	superior to the mTOR inhibitor rapamycin	the number of live cells declined	can inhibit T cell proliferation	–
CN=C(NC)NCCC[C@H](N)C(=O)O [SDMA, symmetric dimethylarginine]	reduced the survival rate of cells	resulted in the reduction of the number of divided T cells	significantly inhibit the proliferation of mouse T cells	inhibit proliferation of human T cells significantly	reduced the number of divided T cells	significantly inhibit B cells proliferation	reduced the number of live	reduced the number of live (FIG. 3A) and divided B cells	ROS was significantly induced	–	–	–	–
dimethylguanidino valeric acid [DMGV]	–	–	–	–	–	–	–	–	–	–	–	–	ROS (mouse splenic T cells; DMGV 10 μM): induces ROS; ROS (human peripheral T cells; DMGV 10 μM): induces ROS; proliferation (mouse T cells [5]): inhibited proliferation; proliferation (human T cells [4]; DMGV 10 μM): inhibited proliferation; arthritis score (SKG mice arthritis): significantly decreased the arthritis score in all mice
